According to patent publication US10935552B2, “Aie luminogens for visualization and treatment of cancer” (THE HONG KONG UNIVERSITY OF SCIENCE AND TECHNOLOGY, priority 2015, dated 2021):
Structures can show the parent of a compound that is named as a salt.

How the values were obtained:
[1] = MTT cell viability assay, HeLa cells; type: cell-based, human; settings: human, HeLa cells, 15 μM, MTT
Method: (§1) Hela cells were incubated with different concentrations of Naph-IQ in culture medium for 24 hours.
(§2) Before employing AIE-LysoY as a fluorescent visualizer of lysosome, a 3-(4,5-dimethyl-2-thiazolyl)-2,5-diphenyltetrazolium bromide (MTT) cell proliferation assay was first conducted to evaluate its cytotoxicity. […] The good biocompatibility of AIE-LysoY enables its application as a fluorescent tracer to follow the autophagic process of lysosome.

lysosome = experiment: Lysosome imaging in HeLa cells, co-staining with LTR; type: cell-based, human; settings: HeLa
Method: Then, AIE-LysoY was applied to lysosome imaging and its lysosome-targeting performance was assessed by fluorescence microscope. HeLa cells were stained with 10 μM of AIE-LysoY for 10 min, followed by washing away the abundant molecules of AIE-LysoY and incubation with 50 nM of LTR for 30 min. […] The fluorescence of AIE-LysoY overlaps perfectly with that of LTR, indicating the lysosome-targeting of AIE-LysoY.
Quantitative analysis of the degree of overlapping of these two fluorescence signals by Pearson's coefficient (Rr), which depicts the degree of linear dependence between two variables, gives an overlapping coefficient of 0.90. The high Rr value proves that AIE-LysoY is a lysosome-selective probe. […] Changing the staining time from 10 min to 60 min, the specificity to lysosome is retained, as well as the emission contrast.
To design the lysosome-specific bioprobe, a molecular engineering approach was employed. The precursor of AIE-LysoY, FAS-Br, and two morpholine-functionalized AIEgens, TPE-2Mor and Nred-mor were prepared and applied to cell imaging. The molecular structures of TPE-2mor and Nred-mor are shown below: […]

HeLa cells [2] = experiment: Photostability by continuous confocal scanning of stained HeLa cells; type: cell-based, human
Source text: Compared with LTR, the working concentration of AIE-LysoY is much higher. LTR is not more sensitive than AIE-LysoY. As mentioned previously, LTR can only be used at low concentrations to avoid the ACQ effect. At such a low working concentration, the fluorescent probes molecularly disperse in the organelle and can be easily photooxidized by continuous excitation light, resulting in the low photostability of these probes. In order to evaluate the photostability of AIE-LysoY, a confocal microscope (Zeiss laser scanning confocal microscope LSM7 DUO) was applied to continuously scan cells stained by AIE-LysoY. The photostability of LTR was also measured for comparison. The power of excitation light (405 nm for AIE-LysoY and 561 nm for LTR) were unified by using a power meter. […] In contrast, the fluorescence intensity from LTR dropped to lower than 50% of its initial value after only 25 scans (FIG. 28, hollow circle line). The slight fluctuation of fluorescence signal can be ascribed to the dynamic movement of lysosome in living cells. The excellent photostability of AIE-LysoY may stem from its nanoparticles nature in lysosome imaging, which can protect the chromophore inside the particles from being photooxidzied. In this way, the fluorescence of […] can pertain after a long-time irradiation. […]

HeLa cells [3] = experiment: Cell imaging under fluorescent microscope, HeLa cells; type: cell-based, human; settings: Hela, 200 nM DPA-IQ, 10 min
Method: Cell culture: HeLa cells were cultured in the MEM containing 10% FBS and 1% antibiotics (100 units/mL penicillin and 100 µg/mL streptomycin) in a 5% CO2 humidity incubator at 37° C. COS-7, MDA-MB-231, MCF-7, and MDCK-II cells were culture in the DMEM containing 10% FBS and antibiotics (100 units/mL penicillin and 100 µg/mL streptomycin) in a 5% CO2 humidity incubator at 37° C.
Cell imaging: two different kind of cells were grown overnight on a 35 mm petri dish with a cover slip. The live cells were incubated with 200 nM of TPE-IQ-2O for 1, 5, 10, and 20 mins. In a typical experiment, 2 μL of a 10 mM stock solution of TPE-IQ-2O in DMSO was diluted to 2 mL with cell culture medium, followed by further dilution to desired concentration. The cells were imaged under a fluorescent microscope (BX41 Microscope) using the same excitation and emission filters: excitation filter=400-440 nm, dichroic mirror=455 nm, and emission filter=465 nm long pass.
Two different kinds of cells were grown overnight on a 35 mm petri dish with a cover slip. The live cells were incubated with 200 nM of TPE-IQ-20 for 20, 10, 5, and 1 mins. The Hela cells were stained by TPE-IQ-2O; the COS-7 cells were stained by TPE-IQ-2O; the Hela cells and COS-7 cells were co-cultured and stained together by TPE-IQ-2O. Condition: 200 nM (Filter: both close; Channel 5; EX: 400-440 nm; Exposure time: bright field: 1000 ms Fluorescence: 1000 ms.
Two different kinds of cells were grown overnight on a 35 mm petri dish with a cover slip. The live cells were incubated with 200 nM of TPE-IQ-2O for 10 mins. The Hela cells were stained by TPE-IQ-2O; the MDCKII cells were stained by TPE-IQ-2O; the MDA-MB-231 cells and COS-7 cells were co-cultured and stained together by TPE-IQ-2O. Condition: 200 nM 10 mins (Filter: both close; Channel 5; EX: 400-440 nm; Exposure time: bright field: 1000 ms Fluorescence: 1000 ms.
(§3) HepG2 cells (human hepatocarcinoma cell line), PC-9 cells (human lung adenocarcinoma cell line), Hela cells (human cervical carcinoma cell line), and LX2 cells (normal cell, human hepatic stellate cell line) were stained with 200 nM DPA-IQ for 10 min. Images were taken under the same equipment settings. Scale bar: 30 μm. Excitation wavelength: 400-440 nm.

PC-9 cells = experiment: Cell imaging, PC-9 cells; type: cell-based, human; settings: PC-9, 200 nM DPA-IQ, 10 min
Method: (§4) The PC-9, HepG2, and HCC827 cells were grown overnight on a 35 mm petri dish with a cover slip. The live cells were incubated with 200 nM of TPE-IQ-2O for 20 and 10 mins. In all the experiments, the cancer cells are fluorescent in solely staining.
as §3

HepG2 cells = experiment: Cell imaging, HepG2 cells; type: cell-based, human; settings: HepG2, 200 nM DPA-IQ, 10 min
Method: as §4, §3

LX2 cells = experiment: Cell imaging, LX2 normal cells; type: cell-based, human; settings: LX2, 200 nM DPA-IQ, 10 min
Method: The LX2 cells were grown overnight on a 35 mm petri dish with a cover slip. The live cells were incubated with 200 nM of TPE-IQ-2O for 20 and 10 mins.
as §3

mitochondria = experiment: Co-staining with commercial organelle trackers in HeLa cells (mitochondria staining); type: cell-based, human
Method: The HeLa cells were grown overnight on a 35 mm petri dish with a cover slip. Then the HeLa cells were stained with 200 nM TPE-IQ-2O and Mito-tracker red (50 nM)/Lyso-tracker red (50 nM)/DAPI (500 nM) for 20 mins.
The DMSO solution of DPA-IQ was almost non-emissive while the aggregation state powder of this material emits strong green luminescence upon the UV excitation.
The commercially available MitoTracker Red FM is co-stained as a control together with Naph-IQ.

HeLa cells [4] = experiment: MTT cell viability assay, HeLa cells; type: cell-based, human; settings: HeLa, different concentrations, 24 hrs
Method: as §1, §2

HeLa cells [5] = experiment: Cancer cell imaging for HeLa cells by IDA-TPE; type: cell-based, human; settings: 10 μM, 30 mins
Method: Cell Culture. HeLa cells were cultured in MEM containing 10% FBS and 1% antibiotics (100 units/mL penicillin and 100 µg/mL streptomycin) in a 5% CO2 humidity incubator at 37° C.
The HeLa cells were grown overnight on a 35 mm petri dish with a cover slip. […] The cells were imaged under a fluorescent microscope (BX41 Microscope) using same excitation and emission filters: excitation filter=330-385 nm, dichroic mirror=420 nm, and emission filter=400 nm long pass.

MCF-7 cells [6] = experiment: Fluorescence microscopy and long-term tracing of MCF-7 cells treated with TPE-TMX; type: cell-based; settings: long-term tracing
Source text: To examine this hypothesis, fluorescence microscopy of different cell lines treated with TPE-TMX was undertaken. […] Lysosome is an acidic enzyme enriched organelle responsible for digesting intracellular biomolecules, while TPE-TMX with a basic amino group is more favored to target the lysosomes in cells. Once the molecules are accumulated on the surface of lysosome, their intermolecular motions are restricted, which activates the AIE process and thus lights up the organelle.
The whole cells exclude nuclei are highly emissive after the treatment of TPE-TMX for 192 hrs, which is proposed as autophagy. This mechanism is thought to be a degradation system that is mediated by a unique organelle called the autophagosome and then fuses with lysosome to form an autolysosome. Once the autolysosomes are formed, the cells become dysfunctional and eventually cause cell death. […] This is the first time that autophagy can be fluorescently monitored using a theranostic agent for breast cancer cells.

MCF-7 cells [7] = experiment: Photo-bleaching resistance by continuous scanning of stained MCF-7 cells; type: cell-based; settings: MCF-7, 2 μM 30 min, 50 scans, total irradiation 3 min, 0.1 mW
Method: In order to determine the working mechanism of TPE-TMX to MCF-7 cells, probes with long-term tracking are highly pursued. To compare the photo-bleaching resistance between TPE-TMX and LTR, continuous scanning of the stained MCF-7 cells by UV irradiation was carried out and the PL intensity at each scan was recorded. These two sets of MCF-7 cells were first incubated in a medium for 24 hrs and then stained with TPE-TMX and LTR at 2 μM for 30 min, respectively. The excitation power from 405 nm and 561 nm channels of the microscope was unified as 0.1 mW. The initial fluorescence intensity for the dyes was normalized and the percentage of intensity loss was calculated.

[8] = cited from earlier work
HeLa cells [9] = experiment: Autophagy induction by rapamycin in AIE-LysoY-stained HeLa cells; type: cell-based, human; settings: HeLa stained with 10 μM AIE-LysoY, prolonged rapamycin treatment

Question: What does the source list for `Oc1cc(OCCCCCCN2CCOCC2)ccc1/C=N/N=C1c2ccccc2-c2ccccc21` [AIE-LysoY, (E)-2-(((9H-fluoren-9-ylidene)hydrazono)methyl)-5-((6-morpholinohexyl)oxy) phenol]?
Answer: viability at 24 h, 15 µM [1]: > 80%; Lysosome targeting (lysosome; 10 μM 10 min, then 50 nM LTR 30 min): selectively accumulates in the dot-shaped lysosomes; Pearson's coefficient (Rr) of overlap with LTR (lysosome; 10 μM AIE-LysoY, 50 nM LTR): 0.90; Fluorescence signal after continuous scanning (HeLa cells [2]; 405 nm, total irradiation time ~6 min): almost remain unchanged

Question: Which results are given for `CCC[n+]1cc2ccc(N(c3ccccc3)c3ccccc3)cc2c(-c2ccccc2)c1-c1ccccc1` [DPA-IQ]?
Answer: Emission of stained cells (HeLa cells [3]): strong emission; Emission of stained cells (PC-9 cells): strong emission; Emission of stained cells (HepG2 cells): strong emission; Emission of stained cells (LX2 cells): faint emission; Mitochondrial staining compared with MitoTracker Red FM (mitochondria): can stain the mitochondrial organelle as good as the commercially available MitoTracker Red FM; Cytotoxicity by MTT assay (HeLa cells [4]): low cytotoxicity

Question: Which results are given for `O=C(O)CN(CC(=O)O)Cc1ccc(C(=C(c2ccccc2)c2ccccc2)c2ccccc2)cc1` [IDA-TPE, iminodiacetic acid tetraphenylethene]?
Answer: Cell uptake (HeLa cells [5]): can go inside the cancer cell; Fluorescence staining of cells (HeLa cells [5]): can target HeLa cells

Question: For `CN(C)CCNC(=O)CCc1ccc2n1[B-](F)(F)[N+]1=C(c3ccc[nH]3)C=CC1=C2` [LTR, reference compound], which “Fluorescence intensity relative to initial value” (HeLa cells [2]; 561 nm, after 25 scans) is on record?
Answer: The value was “lower than 50%”.

Question: What about the “Fluorescence of stained cells with increasing number of passages” value (MCF-7 cells [6]) of the same compound?
Answer: Its value is “dramatically weakened”.

Question: What about the PL signal loss (MCF-7 cells [7]) of the same compound?
Answer: Its PL signal loss is “more than 55%”.

Question: With `O=C(O)C(F)(F)F` [TFA, trifluoroacetic acid] as the compound, how does the pKa [8] read?
Answer: The pKa was “about −0.3”.

Question: Which “Lysosome number (yellow spots)” value (HeLa cells [9]) does the source give for `CO[C@H]1C[C@@H]2CC[C@@H](C)[C@@](O)(O2)C(=O)C(=O)N2CCCC[C@H]2C(=O)O[C@H]([C@H](C)C[C@@H]2CC[C@@H](O)[C@H](OC)C2)CC(=O)[C@H](C)/C=C(\C)[C@@H](O)[C@@H](OC)C(=O)[C@H](C)C[C@H](C)/C=C/C=C/C=C/1C` [rapamycin] here?
Answer: Its value is “increased”.
